What was measured:
[1] = biological target: HPK1 kinase (aal-346. Life Technologies) (Homo sapiens (Human), UniProt Q92918); experiment: HPK Kinase Activity Assay at 1 mM ATP (TR-FRET); type: biochemical; details: HPK1 kinase 40 nM, 0.5 μM STK1 substrate, read-out: Enzymatic activity IC50
[2] = tested on: pSLP76(S376) level in Jurkat cell line; experiment: Cellular pSLP76(S376) HTRF Assay; type: cell-based; details: Homo sapiens, Jurkat, Jurkat cells, 2 h compound treatment, stimulated with 0.05 μg/mL anti-human CD3 (OKT3) for 30 min

HPK1 kinase (aal-346. Life Technologies), sequence (Q92918 1-346): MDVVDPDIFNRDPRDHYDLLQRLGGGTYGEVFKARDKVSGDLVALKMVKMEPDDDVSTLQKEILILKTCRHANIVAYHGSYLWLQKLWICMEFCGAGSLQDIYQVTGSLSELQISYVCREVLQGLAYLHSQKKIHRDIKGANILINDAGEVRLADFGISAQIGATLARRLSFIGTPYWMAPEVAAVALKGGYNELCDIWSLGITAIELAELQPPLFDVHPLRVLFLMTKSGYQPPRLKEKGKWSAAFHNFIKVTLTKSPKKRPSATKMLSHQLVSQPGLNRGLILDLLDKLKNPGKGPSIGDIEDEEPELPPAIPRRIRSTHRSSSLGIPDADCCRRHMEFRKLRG

## CN1CCC(n2cc(Oc3nc(-c4cc(N5CC6(COC6)C5)cc(C5(O)COC5)c4)cnc3N)cn2)CC1 [Example A78, 3-(3-(5-amino-6-((1-(1-methylpiperidin-4-yl)-1H-pyrazol-4-yl)oxy)pyrazin-2-yl)-5-(2-oxa-6-azaspiro[3.3]heptan-6-yl)phenyl)oxetan-3-ol]
[1]
  IC50: 5.5 nM
[2]
  IC50: 51 nM

## Cc1cc(-c2cnc(N)c(Oc3cnn(C4CCN(C)CC4)c3)n2)cc(C)c1N1CC2(COC2)C1 [Example A77, 5-(3,5-dimethyl-4-(2-oxa-6-azaspiro[3.3]heptan-6-yl)phenyl)-3-((1-(1-methylpiperidin-4-yl)-1H-pyrazol-4-yl)oxy)pyrazin-2-amine]
[1]
  IC50: 38 nM
[2]
  IC50: 91 nM

## Cc1cc(-c2cnc(N)c(Oc3cnn(C4CCN(C)CC4)c3)n2)cc(C2(NS(C)(=O)=O)CC2)c1 [Example A11, N-(1-(3-(5-amino-6-((1-(1-methylpiperidin-4-yl)-1H-pyrazol-4-yl)oxy)pyrazin-2-yl)-5-methylphenyl)cyclopropyl)methanesulfonamide]
[1]
  IC50: 9 nM
[2]
  IC50: 54 nM
